Measurements taken from PMC6017838, “Synthesis and Anticandidal Activity of New Imidazole-Chalcones” (Molecules : A Journal of Synthetic Chemistry and Natural …, 2018).
Converted amounts (≈) assume the structure as drawn.

Legend:
C. glabrata (ATCC 90030) = assay: Anticandidal activity, EUCAST EDef 7.1 broth dilution with resazurin; assay type: cell-based; settings: Nakaseomyces glabratus, ATCC90030, RPMI pH 7, 24 h
Protocol: (§1) Synthesized compounds (3a–3o) were evaluated for anticandidal activity against C. albicans (ATCC 24433), C. krusei (ATCC 6258), C. parapsilosis (ATCC 22019), and C. glabrata (ATCC 90030). MIC50 values were determined via fluorometric measurements, using resazurin solution [24, 25]. Ketoconazole and fluconazole were used as a standard drug in the activity test.
(§2) Microbiological studies were performed according to the EUCAST definitive (EDef 7.1) method for C. albicans (ATCC 24433), C. krusei (ATCC 6258), C. parapsilosis (ATCC 22019), and C. glabrata (ATCC 90030). Fluconazole and ketoconazole were used as control drugs. Two MIC readings were carried out for each chemical agent. The yeasts were maintained in RPMI after overnight incubation at 37 °C. The inocula of test microorganisms was adjusted to match the turbidity of a MacFarland 0.5 standard tube as determined with a spectrophotometer, and the final inoculum size was 0.5–2.5 × 10^5 cfu/mL for the antifungal assay. Testing was carried out in RPMI at pH = 7, and the two-fold serial dilutions technique was applied. The last well on the microplates containing only inoculated broth was kept as a control, and the last well with no growth of microorganism was recorded to represent the MIC50 expressed in μg/mL. For the antifungal assays, the compounds were dissolved in DMSO. Further dilutions of the compounds and standard drugs in the test medium were prepared at the required quantities of 800, 400, 200, 100, 50, 25, 12.5, 6.25, 3.125, 1.5625, and 0.78 μg/mL concentrations RPMI. The completed plates were incubated for 24 h. At the end of the incubation, resazurin (20 µg/mL) was added into each well to control the growth in the wells. Completed plates were incubated for 2 h. MIC50 values were determined using a microplate reader at […].

[1] = test system: C. parapsilosis (ATCC 22019); assay: as above; assay type: cell-based; settings: Lodderomyces parapsilosis, ATCC22019, RPMI pH 7, 24 h
Protocol: as §1, §2

C. krusei (ATCC 6258) = assay: as above; assay type: cell-based; settings: Pichia kudriavzevii, ATCC6258, RPMI pH 7, 24 h
Protocol: as §1, §2

C. albicans (ATCC 24433) = assay: as above; assay type: cell-based; settings: Candida albicans, ATCC24433, RPMI pH 7, 24 h
Protocol: as §1, §2

[2] = test system: ergosterol biosynthesis in C. krusei; assay: Quantification of ergosterol level by LC-MS-MS; assay type: cell-based; settings: Pichia kudriavzevii, mean ± SD, quadruplicate
From the text: Sterols are neutral lipids of eukaryotic cells, among which ergosterol is the main constituent of fungal membranes. Ergosterol has biological functions such as membrane fluidity, regulation, activity and distribution of integral membrane proteins, and control of the cell cycle. The critical role of sterols in maintenance of cell membranes make ergosterol and its biosynthetic pathway essential for fungal growth, and a primary target for antifungal drugs to treat fungal infections. From this point of view, we performed an LCMSMS (Shimadzu LCMS 8040, Kyoto, Japan) method for quantitative determination of ergosterol content of C. krusei as reported in our recent study. Compounds 3a–3d, displaying the best anticandidal activity and low cytotoxic effect, and reference agents ketoconazole and fluconazole were tested at concentrations of 0.78–3.12 µg/mL. Ergosterol standard (Product No.: 45480, Sigma-Aldrich, Darmstadt, Germany) was used for the quantification of ergostrerol in samples, which were treated with reference agents and Compounds 3a–3d. Ergosterol quantity of the negative control was considered as 100%. Quadruplicate analyses were performed for all concentrations and the obtained data were expressed as mean ± standard deviation (SD) (Table 2).
Extraction of total sterols from C. krusei was performed as recorded by Breivik and Owades. Quantification of ergosterol level in this extract was carried out in accordance with our recently described method.

SMILES | MIC50 (C. glabrata (ATCC 90030)) [µg/mL] | MIC50 [1] [µg/mL] | MIC50 (C. krusei (ATCC 6258)) [µg/mL] | MIC50 (C. albicans (ATCC 24433)) [µg/mL] | melting point [°C] | inhibition at 0.78 µg/mL [2] [%] | inhibition at 1.56 µg/mL [2] [%] | inhibition at 3.12 µg/mL [2] [%]
CC1CCN(c2ccc(C=CC(=O)c3ccc(-n4ccnc4)cc3)cc2)CC1 [Compound 3i, 1-(4-(1H-Imidazol-1-yl)phenyl)-3-(4-(4-methylpiperidin-1-yl)phenyl)prop-2-en-1-one] | 12.5 (≈ 33.6 µM) | 12.5 (≈ 33.6 µM) | 12.5 (≈ 33.6 µM) | 50 (≈ 135 µM) | 189 to 191 |  |  | 
CC1CC(C)CN(c2ccc(C=CC(=O)c3ccc(-n4ccnc4)cc3)cc2)C1 (stereo not shown) [Compound 3j, 1-(4-(1H-Imidazol-1-yl)phenyl)-3-(4-(3,5-dimethylpiperidin-1-yl)phenyl)prop-2-en-1-one] | 12.5 (≈ 32.4 µM) | 25 (≈ 64.8 µM) | 25 (≈ 64.8 µM) | 50 (≈ 130 µM) | 160 to 161 |  |  | 
O=C(C=Cc1ccc(N2CCC(Cc3ccccc3)CC2)cc1)c1ccc(-n2ccnc2)cc1 [Compound 3k, 1-(4-(1H-Imidazol-1-yl)phenyl)-3-(4-(4-benzylpiperidin-1-yl)phenyl)prop-2-en-1-one] | 25 (≈ 55.9 µM) | 12.5 (≈ 27.9 µM) | 25 (≈ 55.9 µM) | 50 (≈ 112 µM) | 178 to 180 |  |  | 
CN1CCN(c2ccc(C=CC(=O)c3ccc(-n4ccnc4)cc3)cc2)CC1 [Compound 3l, 1-(4-(1H-Imidazol-1-yl)phenyl)-3-(4-(4-methylpiperazin-1-yl)phenyl)prop-2-en-1-one] | 12.5 (≈ 33.6 µM) | 12.5 (≈ 33.6 µM) | 25 (≈ 67.1 µM) | 50 (≈ 134 µM) | 205 to 207 |  |  | 
CCN1CCN(c2ccc(C=CC(=O)c3ccc(-n4ccnc4)cc3)cc2)CC1 [Compound 3m, 1-(4-(1H-Imidazol-1-yl)phenyl)-3-(4-(4-ethylpiperazin-1-yl)phenyl)prop-2-en-1-one] | 12.5 (≈ 32.3 µM) | 25 (≈ 64.7 µM) | 12.5 (≈ 32.3 µM) | 50 (≈ 129 µM) | 188 to 189 |  |  | 
CN(C)CCN1CCN(c2ccc(C=CC(=O)c3ccc(-n4ccnc4)cc3)cc2)CC1 [Compound 3n, 1-(4-(1H-Imidazol-1-yl)phenyl)-3-(4-(4-(2-(dimethylamino)ethyl)piperazin-1-yl)phenyl)prop-2-en-1-one] | 12.5 (≈ 29.1 µM) | 12.5 (≈ 29.1 µM) | 12.5 (≈ 29.1 µM) | 50 (≈ 116 µM) | 146 to 149 |  |  | 
CN(C)CCCN1CCN(c2ccc(C=CC(=O)c3ccc(-n4ccnc4)cc3)cc2)CC1 [Compound 3o, 1-(4-(1H-Imidazol-1-yl)phenyl)-3-(4-(4-(3-(dimethylamino)propyl)piperazin-1-yl)phenyl)prop-2-en-1-one] | 12.5 (≈ 28.2 µM) | 12.5 (≈ 28.2 µM) | 12.5 (≈ 28.2 µM) | 50 (≈ 113 µM) | 138 to 141 |  |  | 
OC(Cn1cncn1)(Cn1cncn1)c1ccc(F)cc1F [Fluconazole, reference compound] | 1.56 (≈ 5.09 µM) | 0.78 (≈ 2.55 µM) | 1.56 (≈ 5.09 µM) | 0.78 (≈ 2.55 µM) |  | 61.7 ± 1.7 | 70.1 ± 3.22 | 82.1 ± 4.45
CC(=O)N1CCN(c2ccc(OCC3COC(Cn4ccnc4)(c4ccc(Cl)cc4Cl)O3)cc2)CC1 (stereo not shown) [Ketoconazole, reference compound] | 1.56 (≈ 2.94 µM) | 1.56 (≈ 2.94 µM) | 1.56 (≈ 2.94 µM) | 0.78 (≈ 1.47 µM) |  | 61 ± 2.94 | 73.1 ± 4.16 | 84.6 ± 3.01
